Experiments:
[1] = molecular target: Muscarinic acetylcholine receptor M3 (Homo sapiens, UniProt P20309); test: Antagonist activity at human recombinant muscarinic M3 receptor expressed in CHO cells assessed as inhibition of acetylcholine-induced intracellular Ca2+ mobilization by FLIPR assay; type: functional, cell-based
[2] = molecular target: T1, Muscarinic acetylcholine receptor M1 (Homo sapiens, UniProt P11229); test: Antagonist activity at human recombinant muscarinic M1 receptor expressed in CHO cells assessed as inhibition of acetylcholine-induced intracellular Ca2+ mobilization by FLIPR assay; type: functional, cell-based
T1 sequence (P11229 whole entry): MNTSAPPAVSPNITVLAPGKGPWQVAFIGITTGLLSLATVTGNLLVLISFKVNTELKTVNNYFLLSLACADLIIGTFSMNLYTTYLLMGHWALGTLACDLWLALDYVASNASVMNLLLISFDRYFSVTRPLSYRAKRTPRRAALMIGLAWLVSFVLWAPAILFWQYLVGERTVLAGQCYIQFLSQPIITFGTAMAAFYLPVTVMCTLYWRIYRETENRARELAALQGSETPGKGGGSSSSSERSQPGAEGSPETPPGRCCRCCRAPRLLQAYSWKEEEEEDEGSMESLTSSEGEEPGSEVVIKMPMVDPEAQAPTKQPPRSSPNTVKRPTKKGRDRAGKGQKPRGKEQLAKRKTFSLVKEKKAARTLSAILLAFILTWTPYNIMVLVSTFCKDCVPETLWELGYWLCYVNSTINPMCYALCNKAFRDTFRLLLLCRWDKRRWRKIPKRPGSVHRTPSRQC

[3] = molecular target: T2, Muscarinic acetylcholine receptor M2 (Homo sapiens, UniProt P08172); test: Antagonist activity at human recombinant muscarinic M2 receptor expressed in CHO cells coexpressing chimeric G protein Gqi5 assessed as inhibition of acetylcholine-induced intracellular Ca2+ mobilization by FLIPR assay; type: functional, cell-based
T2 sequence (P08172 whole entry): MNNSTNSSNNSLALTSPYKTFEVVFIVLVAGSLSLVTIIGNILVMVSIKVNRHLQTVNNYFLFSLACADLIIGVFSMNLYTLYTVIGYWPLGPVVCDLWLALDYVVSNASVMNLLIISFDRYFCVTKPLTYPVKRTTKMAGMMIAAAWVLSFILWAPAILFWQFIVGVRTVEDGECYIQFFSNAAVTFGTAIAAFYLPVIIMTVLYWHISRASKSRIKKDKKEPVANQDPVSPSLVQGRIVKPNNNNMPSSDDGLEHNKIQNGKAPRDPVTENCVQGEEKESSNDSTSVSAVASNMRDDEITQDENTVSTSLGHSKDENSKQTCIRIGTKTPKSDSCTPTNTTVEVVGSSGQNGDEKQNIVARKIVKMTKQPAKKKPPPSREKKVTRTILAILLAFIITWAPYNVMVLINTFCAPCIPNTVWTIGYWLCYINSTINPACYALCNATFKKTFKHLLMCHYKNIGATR

[4] = molecular target: Muscarinic acetylcholine receptors; M2 & M3 (Homo sapiens) (UniProt P20309+P08172); test: Selectivity for human recombinant muscarinic M3 receptor over human recombinant muscarinic M2 receptor
[5] = molecular target: Muscarinic acetylcholine receptor M1 and M3 (Homo sapiens) (UniProt P20309+P11229); test: Selectivity for human recombinant muscarinic M3 receptor over human recombinant muscarinic M1 receptor
Chain of Muscarinic acetylcholine receptor M1 and M3 (Homo sapiens) (P20309 whole entry, looked up, one chain of several): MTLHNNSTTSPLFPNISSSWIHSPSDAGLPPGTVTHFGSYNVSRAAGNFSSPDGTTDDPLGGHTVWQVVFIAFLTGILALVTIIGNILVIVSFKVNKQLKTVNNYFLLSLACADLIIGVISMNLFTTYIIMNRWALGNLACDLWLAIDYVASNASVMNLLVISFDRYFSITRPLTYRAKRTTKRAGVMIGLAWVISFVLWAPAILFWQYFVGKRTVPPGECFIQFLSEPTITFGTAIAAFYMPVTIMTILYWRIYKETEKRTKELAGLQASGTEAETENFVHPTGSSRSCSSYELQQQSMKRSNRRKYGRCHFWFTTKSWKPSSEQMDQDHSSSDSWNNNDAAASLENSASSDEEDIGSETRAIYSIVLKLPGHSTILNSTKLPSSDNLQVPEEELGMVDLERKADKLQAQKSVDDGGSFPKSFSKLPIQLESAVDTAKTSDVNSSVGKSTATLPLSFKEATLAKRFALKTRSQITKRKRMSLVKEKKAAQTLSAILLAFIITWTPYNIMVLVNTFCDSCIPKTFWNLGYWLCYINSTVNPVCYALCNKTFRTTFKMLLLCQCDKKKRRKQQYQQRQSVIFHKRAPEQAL

Chain of Muscarinic acetylcholine receptor M3 (P20309 whole entry): as the sequence (P20309 whole entry, looked up, one chain of several) above
Chain of Muscarinic acetylcholine receptors; M2 & M3 (Homo sapiens) (P20309 whole entry, looked up, one chain of several): as above

| IC50 [1] | IC50 [2] | IC50 [3] | Selectivity ratio [4] | Selectivity ratio [5] | SMILES |
| --- | --- | --- | --- | --- | --- |
| 0.0158 µM | 0.1 µM | 0.01 µM | – | – | CCOC(=O)c1ccc(NC(=O)N[C@@H](Cc2ccc(F)cc2)C(=O)N[C@H]2CC[N+](C)(Cc3ccc4c(c3)OCO4)C2)cc1 (some centres undefined) |
| 0.0126 µM | 0.0316 µM | 0.00398 µM | – | – | CCOC(=O)c1ccc(NC(=O)N[C@@H](Cc2ccc(Br)cc2)C(=O)N[C@H]2CC[N+](C)(Cc3ccc4c(c3)OCO4)C2)cc1 (some centres undefined) |
| 0.00794 µM | 1.26 µM | 0.126 µM | 10 | 100 | CCOC(=O)c1ccc(NC(=O)N[C@@H](Cc2ccc(O)cc2)C(=O)NC2CCN(Cc3cccc(Cl)c3)C2)cc1 (some centres undefined) |
| 0.01 µM | 0.0398 µM | 0.00631 µM | – | – | CCOC(=O)c1ccc(NC(=O)N[C@@H](Cc2ccc(Cl)cc2)C(=O)N[C@H]2CC[N+](C)(Cc3ccc4c(c3)OCO4)C2)cc1 (some centres undefined) |
| 0.0251 µM | 0.0398 µM | 0.0126 µM | – | – | CCOC(=O)c1ccc(NC(=O)N[C@@H](Cc2ccc(Cl)c(Cl)c2)C(=O)N[C@H]2CC[N+](C)(Cc3ccc4c(c3)OCO4)C2)cc1 (some centres undefined) |
| 0.00631 µM | 0.251 µM | 0.0398 µM | – | – | CCOC(=O)c1ccc(NC(=O)N[C@@H](Cc2ccc(O)cc2)C(=O)N[C@H]2CC[N+](C)(Cc3ccc(O)cc3)C2)cc1 (some centres undefined) |
| 0.002 µM | 0.1 µM | 0.00251 µM | – | – | CCOC(=O)c1ccc(NC(=O)N[C@@H](Cc2ccc(O)cc2)C(=O)N[C@H]2CCC[N+](C)(Cc3ccc(F)cc3)C2)cc1 (some centres undefined) |
| 1.26 µM | 0.631 µM | 0.0501 µM | – | – | CCOC(=O)c1ccc(NC(=O)N[C@@H](Cc2ccc(OC)c(OC)c2)C(=O)N[C@H]2CC[N+](C)(Cc3ccc4c(c3)OCO4)C2)cc1 (some centres undefined) |
| 0.0316 µM | 0.0501 µM | 0.01 µM | – | – | CCOC(=O)c1ccc(NC(=O)N[C@@H](Cc2ccc(C(F)(F)F)cc2)C(=O)N[C@H]2CC[N+](C)(Cc3ccc4c(c3)OCO4)C2)cc1 (some centres undefined) |
| 0.0501 µM | 0.251 µM | 0.0126 µM | – | – | CCOC(=O)c1ccc(NC(=O)N[C@@H](Cc2ccc(C#N)cc2)C(=O)N[C@H]2CC[N+](C)(Cc3ccc4c(c3)OCO4)C2)cc1 (some centres undefined) |

Second part, the compound before the results:

| SMILES | IC50 [1] | IC50 [2] | IC50 [3] | Selectivity ratio [4] | Selectivity ratio [5] |
| --- | --- | --- | --- | --- | --- |
| CNC(=O)c1ccc(NC(=O)N[C@@H](Cc2ccc(O)cc2)C(=O)NC2CCN(Cc3ccc(C#N)cc3)C2)cc1 (some centres undefined) | 2.51 µM | > 3.16 µM | > 3.16 µM | – | – |
| CCOC(=O)c1ccc(NC(=O)N[C@@H](Cc2ccc(O)cc2)C(=O)NC2CCN(Cc3ccc(O)cc3)C2)cc1 (mixture of isomers) | – | – | – | 10 | 100 |
| CCOC(=O)c1ccc(NC(=O)N[C@@H](Cc2ccc(O)cc2)C(=O)NC2CCN(CC)C2)cc1 (some centres undefined) | 0.794 µM | > 3.16 µM | 2.51 µM | 10 | 100 |
| CCOC(=O)c1ccc(NC(=O)N[C@@H](Cc2ccc(O)cc2)C(=O)NC2CCN(CC3CC3)C2)cc1 (some centres undefined) | 0.0251 µM | 0.631 µM | 0.1 µM | 10 | 100 |
| N#Cc1ccc(CN2CCC(NC(=O)[C@H](Cc3ccc(O)cc3)NC(=O)Nc3ccc(C(=O)N4CCOCC4)cc3)C2)cc1 (some centres undefined) | 1 µM | > 3.16 µM | > 3.16 µM | – | – |
| CCOC(=O)c1ccc(NC(=O)N[C@@H](Cc2ccc(O)cc2)C(=O)NC2CCN(Cc3cccc(OC)c3)C2)cc1 (some centres undefined) | 0.0251 µM | 2.51 µM | 0.316 µM | 10 | 100 |
| CC(C)OC(=O)c1ccc(NC(=O)N[C@@H](Cc2ccc(O)cc2)C(=O)NC2CCN(Cc3ccc(O)cc3)C2)cc1 (some centres undefined) | 0.00501 µM | 1 µM | 0.0794 µM | > 10 | 100 |
| CCCNC(=O)c1ccc(NC(=O)N[C@@H](Cc2ccc(O)cc2)C(=O)NC2CCN(Cc3ccc(C#N)cc3)C2)cc1 (some centres undefined) | 0.501 µM | > 3.16 µM | > 3.16 µM | – | – |
| CCN(CC)C(=O)c1ccc(NC(=O)N[C@@H](Cc2ccc(O)cc2)C(=O)NC2CCN(Cc3ccc(C#N)cc3)C2)cc1 (some centres undefined) | 0.398 µM | > 3.16 µM | > 3.16 µM | – | – |
| CCNC(=O)c1ccc(NC(=O)N[C@@H](Cc2ccc(O)cc2)C(=O)NC2CCN(Cc3ccc(C#N)cc3)C2)cc1 (some centres undefined) | 0.316 µM | > 3.16 µM | > 3.16 µM | – | – |
